Laboratory results reported in patent US7265129B2, “Anti-infective biaryl compounds” (priority 2002, dated 2007).

Key:
C. albicans ATCC 38247 = assay: MIC, antifungal assay, C. albicans; assay type: cell-based, Candida albicans
Text: (§1) It vitro biological activity data were collected for a variety of microorganisms, including Bacillus cereus (ATCC 11778), Staphylococcus aureus (ATCC 33591; ATCC 27660, a methicillin resistant strain (MRSA); ATCC 13709, a methicillin sensitive strain (MSSA)), Enterococcus faecalis (ATCC 29212), and Streptococcus pneumoniae (ATCC 49619). Additionally, antifungal activity data were collected for Candida albicans (ATCC 38247).
(§2) Compounds according to this invention were screened for their in vitro activities against selected species of bacteria and fungi. The minimal inhibition concentration (MIC) of these compounds was determined using the National Committee for Clinical Laboratory Standards (NCCLS) broth microdilution assay in microtiter plates, as set forth in: (1) the guidelines of the National Committee for Clinical Laboratory Standards (NCCLS) Document M7-A4 (NCCLS, 1997); (2) the guidelines of the National Committee for Clinical Laboratory Standards (NCCLS) Document M11-A4 (NCCLS, 1997); and (3) the guidelines and reference method of the National Committee for Clinical Laboratory Standards (NCCLS) Document M27-T (NCCLS, 1995). For antifungal assays, the method recommended in Murray, P R., 1995 Manual of Clinical Microbiology (ASM Press, Washington, D.C.), was employed.

S. aureus ATCC 27660 = assay: MIC, NCCLS broth microdilution, S. aureus MRSA; assay type: cell-based, Staphylococcus aureus; conditions: S. aureus ATCC 27660, methicillin resistant strain (MRSA)
Text: as §1, §2

S. pneumoniae ATCC 49619 = assay: MIC, NCCLS broth microdilution, S. pneumoniae; assay type: cell-based, Streptococcus pneumoniae
Text: as §1, §2

S. aureus ATCC 33591 = assay: MIC, NCCLS broth microdilution, S. aureus ATCC 33591; assay type: cell-based, Staphylococcus aureus
Text: as §1, §2

B. cereus ATCC 11778 = assay: MIC, NCCLS broth microdilution, B. cereus; assay type: cell-based, Bacillus cereus
Text: as §1, §2

E. faecalis ATCC 29212 = assay: MIC, NCCLS broth microdilution, E. faecalis; assay type: cell-based, Enterococcus faecalis
Text: as §1, §2

S. aureus ATCC 13709 = assay: MIC, NCCLS broth microdilution, S. aureus MSSA; assay type: cell-based, Staphylococcus aureus; conditions: S. aureus ATCC 13709, methicillin sensitive strain (MSSA)
Text: as §1, §2

Row | SMILES | Minimum Inhibitory Concentration (MIC), organism B (C. albicans ATCC 38247) | Minimum Inhibitory Concentration (MIC), organism E (S. aureus ATCC 27660) | Minimum Inhibitory Concentration (MIC), organism G (S. pneumoniae ATCC 49619) | Minimum Inhibitory Concentration (MIC), organism F (S. aureus ATCC 33591) | Minimum Inhibitory Concentration (MIC), organism A (B. cereus ATCC 11778) | Minimum Inhibitory Concentration (MIC), organism C (E. faecalis ATCC 29212) | Minimum Inhibitory Concentration (MIC), organism D (S. aureus ATCC 13709)
1 | Cn1cc(NC(=O)c2cc(NC(=O)c3ccc(Cl)cc3F)cn2CCCN2CCC(O)CC2)cc1-c1nc2ccccc2[nH]1 [Compound A-34] | + (12 ≦ MIC ≦ 32 μg/mL) | +++ (MIC ≦ 4 μg/mL) | +++ (MIC ≦ 4 μg/mL) | +++ (MIC ≦ 4 μg/mL) | +++ (MIC ≦ 4 μg/mL) | +++ (MIC ≦ 4 μg/mL) | +++ (MIC ≦ 4 μg/mL)
2 | Cn1cc(NC(=O)c2cc(NC(=O)c3ccc(Cl)cc3F)cn2CCCN2CCC(F)(F)CC2)cc1-c1nc2ccccc2[nH]1 [Compound A-35] | >32 µg/mL | +++ (MIC ≦ 4 μg/mL) | +++ (MIC ≦ 4 μg/mL) | +++ (MIC ≦ 4 μg/mL) | +++ (MIC ≦ 4 μg/mL) | +++ (MIC ≦ 4 μg/mL) | +++ (MIC ≦ 4 μg/mL)
3 | Cn1cc(NC(=O)c2cc(NC(=O)c3ccc(Cl)cc3F)cn2CCCN(CCO)CCO)cc1-c1nc2ccccc2[nH]1 [Compound A-36] | + (12 ≦ MIC ≦ 32 μg/mL) | +++ (MIC ≦ 4 μg/mL) | +++ (MIC ≦ 4 μg/mL) | +++ (MIC ≦ 4 μg/mL) | ++ (4 < MIC < 12 μg/mL) | +++ (MIC ≦ 4 μg/mL) | ++ (4 < MIC < 12 μg/mL)
4 | Cn1cc(NC(=O)c2cc(NC(=O)c3ccc(Cl)cc3F)cn2CCCN2CCOCC2)cc1-c1nc2ccccc2[nH]1 [Compound A-37] | >32 µg/mL | +++ (MIC ≦ 4 μg/mL) | +++ (MIC ≦ 4 μg/mL) | +++ (MIC ≦ 4 μg/mL) | +++ (MIC ≦ 4 μg/mL) | +++ (MIC ≦ 4 μg/mL) | +++ (MIC ≦ 4 μg/mL)
5 | CC1CCN(CCCn2cc(NC(=O)c3ccc(Cl)cc3F)cc2C(=O)Nc2cc(-c3nc4ccccc4[nH]3)n(C)c2)CC1 [Compound A-38] | + (12 ≦ MIC ≦ 32 μg/mL) | +++ (MIC ≦ 4 μg/mL) | +++ (MIC ≦ 4 μg/mL) | +++ (MIC ≦ 4 μg/mL) | +++ (MIC ≦ 4 μg/mL) | +++ (MIC ≦ 4 μg/mL) | +++ (MIC ≦ 4 μg/mL)
6 | CN(C)CCCn1cc(NC(=O)c2ccc(Cl)cc2F)cc1C(=O)Nc1cc(-c2nc3cccnc3[nH]2)n(C)c1 [Compound A-39] | + (12 ≦ MIC ≦ 32 μg/mL) | +++ (MIC ≦ 4 μg/mL) | +++ (MIC ≦ 4 μg/mL) | +++ (MIC ≦ 4 μg/mL) | +++ (MIC ≦ 4 μg/mL) | +++ (MIC ≦ 4 μg/mL) | +++ (MIC ≦ 4 μg/mL)
7 | Cn1cc(NC(=O)c2cc(NC(=O)c3ccc(Cl)cc3F)cn2CCCN2CCOCC2)cc1-c1nc2cccnc2[nH]1 [Compound A-40] | >32 µg/mL | +++ (MIC ≦ 4 μg/mL) | +++ (MIC ≦ 4 μg/mL) | +++ (MIC ≦ 4 μg/mL) | +++ (MIC ≦ 4 μg/mL) | +++ (MIC ≦ 4 μg/mL) | +++ (MIC ≦ 4 μg/mL)
8 | CC1CCN(CCCn2cc(NC(=O)c3ccc(Cl)cc3F)cc2C(=O)Nc2cc(-c3nc4cccnc4[nH]3)n(C)c2)CC1 [Compound A-41] | >32 µg/mL | +++ (MIC ≦ 4 μg/mL) | +++ (MIC ≦ 4 μg/mL) | +++ (MIC ≦ 4 μg/mL) | +++ (MIC ≦ 4 μg/mL) | +++ (MIC ≦ 4 μg/mL) | +++ (MIC ≦ 4 μg/mL)
